Data published in patent US20220324770A1, “NITRIFICATION INHIBITORS” (The University of Melbourne, priority 2019, published 2022).

Tests used:
Horsham soil = assay: Soil microcosm incubation (nitrification of applied ammonium), Horsham soil
Protocol: (§1) The soil used in this study was collected from four different locations in Victoria, Australia: (i) a wheat cropping soil from Horsham (36° 45′S, 142° 07′ E), (ii) a rotational cropping soil from Dahlen (36° 37′S, 142° 09′ E), (iii) a vegetable growing soil from Clyde (38° 08′S, 145° 20′ E), and (iv) a pasture soil from Terang (38° 15′S, 142° 52′E). In addition, a sugarcane cropping soil from South Johnstone in northern Queensland (17° 34′S, 145° 57′ E) was also studied. The water content of the soil was calculated before commencing each experiment, from samples that were oven-dried to constant weight. The soil's water-filled pore space (WFPS) was in the range 52%-61%, which is within the recommended 50-70% range for microbial activity due to oxygen and nutrient availability (Fichtner, T., et al., Applied Sciences, 2019, 9, 496).
(§2) Soil microcosm incubations were carried out in 250 ml polypropylene specimen containers (Sarstedt, Germany), containing 18.24 g oven dry-weight equivalent of soil. Microcosms were re-wetted and pre-incubated at the test temperature for seven days to revive soil microbial activity. Following pre-incubation, the remaining volume to reach the desired water-filled pore spaces (WFPS %) was applied as one of the following treatment solutions; (NH4)2SO4(Control), (NH4)2SO4+DMPP, or (NH4)2SO4+one of Compounds 1-23. Each treatment was applied in triplicate per soil type, so that n=3 at each time point.
(§3) Treatment solutions were prepared such that each microcosm received (NH4)2SO4 at a rate of 100 mg N per kg soil, Compounds 1-23 at 10 mol % of applied N, or DMPP at one of 1.5, 3.6 or 10 mol % of applied N, referred to as L-DMPP, M-DMPP or H-DMPP respectively.
(§4) The microcosms were incubated for 0, 3, 7, 14, 21 or 28 days, where day 0 samples were extracted following 1-hour incubation post-treatment. Soil microcosms were aerated and moisture levels were replenished based on weight loss every few days throughout the incubation period.
(§5) At the end of each incubation period, soil microcosms were destructively sampled by treatment with 2M KCl (100 mL). After shaking for 1 hour, soil-KCl solutions were filtered (Whatman 42) before storing the filtrates at −20° C. until the conclusion of the experiment. All KCl extracts were then analysed by Segmented Flow Analysis (San++, Skalar, Breda, The Netherlands) for the concentration of nitrogen from ammonium (NH4^+—N) and nitrogen from NO3 and NO2 (NOx^−—N) after appropriate dilutions. Results are reported as the mean of three replicates, errors reported are standard errors of the mean.
(§6) Nitrification calculations were performed as previously reported (Aulakh, M., et al., Biology and Fertility of Soils 2001, 33, 258-263; Mahmood, T., et al., Soil Research 2017, 55, 715-722) without correction for the initial baseline concentrations of NH4^+—N or NO3^− N in the untreated soil. For each treatment nitrified NH4^+—N (%) was calculated according to eqn. 1:
(§7) where [NH4^+—N]0 is the NH4^+—N concentration (in mg N kg^−1 soil) of the soil on day 0 and [NH4^+—N]t is the NH4^+—N concentration (in mg N kg^−1 soil) of the soil at a given time point t.
(§8) NOx^−—N accumulation rates (mg NOx^−—N/kg soil/day) over the 28-day incubation experiments were calculated for each treatment as in the following (eqn. 2):
(§9) [NOx^−—N]t=0 and [NOx^−—N]t=28 are the combined concentrations of nitrite (NO2) and nitrate (NO3) in the soil (in mg N kg^−1 soil) on day 0 and day 28, respectively.

Dahlen soil = assay: Soil microcosm incubation (nitrification of applied ammonium), Dahlen soil; conditions: for retaining NH4+—N levels by day 28 vs fertilised control (and DMPP): 25° C.; for Nitrified NH4+—N (%) Day 3 / Nitrified NH4+—N (%) Day 7 / Nitrified NH4+—N (%) Day 14 / Nitrified NH4+—N (%) Day 21 / Nitrified NH4+—N (%) Day 28: 10 mol %
Protocol: as §1, §2, §3, §4, §5, §6, §7, §8, §9

[1] = Horsham soil pH 8.8, 25° C., 10 mol %
[2] = Horsham soil pH 8.8, 35° C., 10 mol %
[3] = Table 5 (further comparative test), Dahlen soil pH 7.3, 25° C.
[4] = Table 5, Dahlen soil pH 7.3, 25° C.
[5] = Table 5, Dahlen soil pH 7.3, 35° C.

Row | Compound | retaining NH4+—N levels by day 28 vs fertilised control (and DMPP) (Dahlen soil; Dahlen soil, Table 5 test) | Nitrified NH4+—N (%) Day 3 (Dahlen soil; [3]) | Nitrified NH4+—N (%) Day 7 (Dahlen soil; [4]) | Nitrified NH4+—N (%) Day 14 (Dahlen soil; [4]) | Nitrified NH4+—N (%) Day 21 (Dahlen soil; [4]) | Nitrified NH4+—N (%) Day 28 (Dahlen soil; [4]) | Nitrified NH4+—N (%) Day 3 (Dahlen soil; [5]) | Nitrified NH4+—N (%) Day 7 (Dahlen soil; [5]) | Nitrified NH4+—N (%) Day 14 (Dahlen soil; [5]) | Nitrified NH4+—N (%) Day 21 (Dahlen soil; [5]) | Nitrified NH4+—N (%) Day 28 (Dahlen soil; [5]) | also measured
1 | CCCCc1cn(CCOC)nn1 [Compound 14, 1-(2-methoxyethyl)-4-butyl-1H-1,2,3-triazole] |  |  |  |  |  |  |  |  |  |  |  | Nitrified NH4+—N (%) Day 3 (Horsham soil; Horsham soil pH 8.8, 25° C., inhibitors 10 mol % of applied N): 23.8 ± 3.0%; Nitrified NH4+—N (%) Day 7 (Horsham soil; [1]): 38.7 ± 5.3%; Nitrified NH4+—N (%) Day 14 (Horsham soil; [1]): 84.3 ± 5.6%; Nitrified NH4+—N (%) Day 21 (Horsham soil; [1]): 93.4 ± 6.2%; Nitrified NH4+—N (%) Day 28 (Horsham soil; [1]): 100 ± 3.2%; Nitrified NH4+—N (%) Day 3 (Horsham soil; [2]): 13.2 ± 5.4%; Nitrified NH4+—N (%) Day 7 (Horsham soil; [2]): 15.7 ± 5.7%; Nitrified NH4+—N (%) Day 14 (Horsham soil; [2]): 39.8 ± 6.6%; Nitrified NH4+—N (%) Day 21 (Horsham soil; [2]): 83.5 ± 7.2%; Nitrified NH4+—N (%) Day 28 (Horsham soil; [2]): 79.7 ± 9.4%; NOx−—N accumulation: effect of temperature (25° C. vs 35° C.) (Horsham soil; Horsham soil, 28-day incubation): lower at the elevated temperature
2 | C=CCOC(=O)Cn1cc(CCC)nn1 [Compound 20, prop-2-en-1-yl 2-(4-propyl-1H-1,2,3-triazol-1-yl)-acetate] | performed statistically better than the fertilised control | 1.9 ± 1.3% | 8.0 ± 0.6% | 15.2 ± 1.2% | 26.0 ± 2.1% | 31.8 ± 4.5% | 16.6 ± 4.5% | 5.0 ± 4.3% | 17.7 ± 3.8% | 17.1 ± 3.6% | 45.6 ± 8.3% | retaining NH4+—N vs (NH4)2SO4-treated control by day 28 (Dahlen soil; Dahlen soil, 35° C., Table 5 test): remain highly effective
3 | C#CCNC(=O)Cn1cc(CCC)nn1 [Compound 23, prop-2-yn-1-yl 2-(4-propyl-1H-1,2,3-triazol-1-yl)-acetamide] | performed statistically better | 4.8 ± 2.9% | 15.7 ± 1.5% | 30.3 ± 0.8% | 35.9 ± 1.2% | 60.5 ± 1.0% | 15.6 ± 6.4% | 8.8 ± 5.6% | 24.0 ± 6.7% | 41.7 ± 4.7% | 64.6 ± 4.9% | 
